From PubChem BioAssay (NCI)
Where “and” joins values, the source holds several entries; their conditions need not be identical. Identical values can stand only once.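 Five compound concentrations were applied to cells in 96-well plates for 48 hours; endpoints were derived by simple linear interpolation of the resulting dose-response curve. GI50 marks 50% less growth. At the TGI there is no net growth.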

Key:
Assay in all cases: NCI-60 cell line screen, 48 h
786-0 renal = system: 786-0 renal
COLO 205 colon = system: COLO 205 colon
HOP-92 NSCLC = system: HOP-92 NSCLC
KM12 colon = system: KM12 colon
MDA-MB-231 breast = system: MDA-MB-231 breast
MDA-MB-435 = system: MDA-MB-435
OVCAR-4 ovarian = system: OVCAR-4 ovarian
RXF 393 renal = system: RXF 393 renal
SK-MEL-5 melanoma = system: SK-MEL-5 melanoma
OVCAR-5 ovarian = system: OVCAR-5 ovarian

| SMILES | TGI (786-0 renal) | TGI (COLO 205 colon) | TGI (HOP-92 NSCLC) | TGI (KM12 colon) | TGI (MDA-MB-231 breast) | TGI (MDA-MB-435) | TGI (OVCAR-4 ovarian) | TGI (RXF 393 renal) | TGI (SK-MEL-5 melanoma) | TGI (OVCAR-5 ovarian) | GI50 (HOP-92 NSCLC) | GI50 (RXF 393 renal) | GI50 (KM12 colon) | GI50 (SK-MEL-5 melanoma) |
| --- | --- | --- | --- | --- | --- | --- | --- | --- | --- | --- | --- | --- | --- | --- |
| O=[N+]([O-])C(=C(N1CCCCC1)N1CCCCC1)/C(Cl)=C(\Cl)Br | 67.8 µM | 38.7 µM | 53.4 µM | 54.5 µM | 70.6 µM | 61.7 µM | 66.5 µM | 62.9 µM | 46 µM | – | – | – | – | – |
| COC(=O)c1c(C)cccc1/C=C1/Cc2c(C)cccc2C1=O | > 100 µM | – | > 100 µM | > 100 µM | > 100 µM | > 100 µM | > 100 µM | > 100 µM | > 100 µM | > 100 µM | – | – | – | – |
| CC(C)=CCc1c2c(c3occ(-c4ccc(O)c(O)c4)c(=O)c3c1O)C=CC(C)(C)O2 | 2.88 µM | 4.04 µM | 5 µM | 3.41 µM | 2.97 µM | 3.2 µM | 3.39 µM | 4.14 µM | 7.72 µM | 21.1 µM | – | – | – | – |
| CSC1CC2C(CC1(C)O)C2(C)C (stereo unspecified) | > 100 µM | > 100 µM | > 100 µM | > 100 µM | – | – | > 100 µM | > 100 µM | > 100 µM | > 100 µM | 25.5 µM and > 100 µM | 29.6 µM and > 100 µM | – | – |
| C/C(=C\c1ccccc1)C(=O)CCN1CCOCC1 | – | 31 µM | 37.1 µM | 31.2 µM | – | – | 32.9 µM | 35.2 µM | > 60.1 µM | 33.4 µM | – | – | – | – |
| O=c1cc(/C=C/c2ccc(O)c(O)c2)oc(/C=C/c2ccc(O)c(O)c2)c1 | 17.7 µM | 21.6 µM | 8.78 µM | 16 µM | 21.6 µM | 11.8 µM | 11.7 µM | 9.12 µM | 13.2 µM | 44.8 µM | – | – | – | – |
| Nn1c(CCCCCCCCc2nnc(COc3c(O)ccc4ccccc34)n2N)nnc1COc1c(O)ccc2ccccc12 | > 100 µM | > 100 µM | > 100 µM | > 100 µM | > 100 µM | > 100 µM | > 100 µM | > 100 µM | > 100 µM | > 100 µM | – | – | – | – |
| CN(C)c1nc(=NCc2ccncc2)ss1 | 31.5 µM | > 100 µM | > 100 µM | > 100 µM | > 54 µM | > 100 µM | 39.2 µM | 92.7 µM | > 100 µM | 54.4 µM | – | – | > 100 µM | > 100 µM |
| O=C(CN1CCCCC1)CC(O)(C(F)(F)F)C(F)(F)F | > 100 µM | > 100 µM | > 100 µM | > 100 µM | > 100 µM | > 100 µM | > 100 µM | > 100 µM | > 100 µM | > 100 µM | – | – | – | – |
| CCSC1=CC(=O)c2nc3ccccc3c3ccnc1c23 | 11.4 µM | > 32.8 µM | 38.6 µM | 25.2 µM | 31.8 µM | 3.43 µM | 7.53 µM | 18.2 µM | – | 15 µM | – | – | – | – |
